Test results taken from patent US9920061B2, “Imidazo[1,5-A]pyrimidinyl carboxamide compounds and their use in the treatment of medical disorders” (Lysosomal Therapeutics Inc., priority 2016, dated 2018).
Values after ≈ are worked out from the molar mass of the structure shown.

What was measured:
[1] = target: T1, glucocerebrosidase (Gcase) (Homo sapiens, UniProt P04062); assay: Glucocerebrosidase (Gcase) activation assay, 4-methylumbelliferyl-beta-D-glucopyranoside substrate, with saposin C; type: biochemical; settings: for activation at 0.1 µM: 0.1 μM test compound, read-out: Percent Gcase Activation 0.1 μM Test Compound; for activation at 1 µM: 1 μM test compound, read-out: Percent Gcase Activation 1 μM Test Compound
T1 sequence (P04062 40-536): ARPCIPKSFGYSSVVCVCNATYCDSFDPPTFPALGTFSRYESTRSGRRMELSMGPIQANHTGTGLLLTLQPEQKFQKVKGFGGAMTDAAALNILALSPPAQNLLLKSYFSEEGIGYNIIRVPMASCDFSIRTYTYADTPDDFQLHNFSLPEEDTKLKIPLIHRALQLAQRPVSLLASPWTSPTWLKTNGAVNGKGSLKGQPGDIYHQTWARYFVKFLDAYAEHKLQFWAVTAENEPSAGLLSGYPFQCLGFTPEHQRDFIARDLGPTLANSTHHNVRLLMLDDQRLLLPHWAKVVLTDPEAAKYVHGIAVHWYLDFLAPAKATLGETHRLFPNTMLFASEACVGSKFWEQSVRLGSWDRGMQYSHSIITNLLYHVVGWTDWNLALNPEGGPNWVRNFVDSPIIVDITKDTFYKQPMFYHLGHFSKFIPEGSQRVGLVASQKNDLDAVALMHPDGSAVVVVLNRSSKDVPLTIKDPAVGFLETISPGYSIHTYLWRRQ
Protocol: The ability of exemplary compounds to activate glucocerebrosidase (Gcase) was measured.
A 484 μL aliquot of a 1.0 mg/mL solution of phosphatidylserine (PS) (Sigma P7769) in chloroform was evaporated under a stream of nitrogen for 1 hour. The lipid film was dissolved over 4 minutes of vigorous vortexing in 40 mL of 176 mM K2HPO4/50 mM citric acid (pH 4.7) containing 7.5 μL of triton X-100, resulting in a mixed micellar preparation with a composition of 0.32 mM triton and 0.37 mol % PS. 4-Methylumbelliferyl-beta-D-glucopyranoside (ACROS-337025000) was dissolved in the micellar solution to a final concentration of 2 mM for use as the reaction substrate.
Test compounds were diluted to the desired concentrations with dimethylsulfoxide (DMSO) from 10 mM stocks, and 0.41 μL of the DMSO compound mixture was added to 100 μL of micellar solution containing 10 nM GCase and 100 nM saposin C (Enzo ALX-201-262-C050). Pre-incubation was allowed to occur for 30 minutes at room temperature, after which the reaction was initiated by combining 25 μL of substrate solution with 25 μL of compound/GCase/saposin mixture. The reaction proceeded for 15 minutes at room temperature and was stopped by adding 150 μL of 1M glycine, pH 12.5. The endpoint of the reaction was monitored by measuring fluorescence intensity (excitation: 365 nm; emission: 440 nm) on a SpectraMax i3 instrument (Molecular Devices). Test compounds were screened at 1.0 and 0.1 μM final concentration, and subsequent 8-point dose response curves were obtained using 3-fold dilutions from a maximum final concentration of […].

[2] = Compound solubility in water; type: physicochemical

activation at 0.1 µM [1] | activation at 1 µM [1] | solubility [2] | Structure (SMILES)
< 10% | < 30% | 43.5 µg/mL (≈ 118 µM) | COCc1cc(-c2ccc(F)cc2)n2cnc(C(=O)N[C@@H](C)C3CC3)c2n1 [III-35]
10 to 20% | > 60% | 22 µg/mL (≈ 59.7 µM) | COCc1cc(-c2ccc(F)cc2)nc2c(C(=O)N[C@@H](C)C3CC3)ncn12 [III-36]
< 10% | < 30% | 2.2 µg/mL (≈ 6.78 µM) | C[C@H](NC(=O)c1ncn2cc(-c3ccc(F)cc3)cnc12)C1CC1 [III-37]
< 10% | 30 to 60% | 27.1 µg/mL (≈ 80.8 µM) | Cc1cc(-c2cccnc2)nc2c(C(=O)NC(C)(C)C3CC3)ncn12 [III-41]
< 10% | > 60% | 4 µg/mL (≈ 11.9 µM) | Cc1cc(-c2ccccn2)nc2c(C(=O)NC(C)(C)C3CC3)ncn12 [III-42]
< 10% | < 30% | 31.1 µg/mL (≈ 96.8 µM) | Cc1cc(-c2cccnc2)nc2c(C(=O)NC(C)C3CC3)ncn12 (stereo not drawn) [III-43]
< 10% | < 30% | 26 µg/mL (≈ 80.9 µM) | Cc1cc(-c2ccccn2)nc2c(C(=O)NC(C)C3CC3)ncn12 (stereo not drawn) [III-44]
< 10% | 30 to 60% | 5 µg/mL (≈ 13.3 µM) | Cc1cc(-c2cccnc2)nc2c(C(=O)N[C@@H](C)c3ccccc3F)ncn12 [III-45]
< 10% | > 60% | 12 µg/mL (≈ 41.9 µM) | Cc1cc(C)n2cnc(C(=O)NC(C)(C)CC3CC3)c2n1 [III-46]
< 10% | 30 to 60% | 24.2 µg/mL (≈ 84.5 µM) | Cc1cc(C)n2cnc(C(=O)NC(C)C(C)C3CC3)c2n1 (stereo not drawn) [III-47]
> 20% | > 60% | 7.1 µg/mL (≈ 16.5 µM) | Cc1cc(-c2cccnc2)nc2c(C(=O)NC(c3ccc(F)cc3)C(F)(F)F)ncn12 (stereo not drawn) [III-48]
> 20% | > 60% | 6.7 µg/mL (≈ 15.6 µM) | Cc1cc(-c2ccccn2)nc2c(C(=O)NC(c3ccc(F)cc3)C(F)(F)F)ncn12 (stereo not drawn) [III-49]
> 20% | > 60% | 33.3 µg/mL (≈ 98.4 µM) | Cc1cc(-c2cccc(F)c2)nc2c(C(=O)NC(C)C3CC3)ncn12 (stereo not drawn) [III-50]
< 10% | > 60% | 22.7 µg/mL (≈ 67.1 µM) | Cc1cc(-c2ccccc2F)nc2c(C(=O)NC(C)C3CC3)ncn12 (stereo not drawn) [III-51]
> 20% | > 60% | 11.6 µg/mL (≈ 33.1 µM) | COc1ccccc1-c1cc(C)n2cnc(C(=O)NC(C)C3CC3)c2n1 (stereo not drawn) [III-52]
> 20% | > 60% | 7.8 µg/mL (≈ 22.3 µM) | COc1cccc(-c2cc(C)n3cnc(C(=O)NC(C)C4CC4)c3n2)c1 (stereo not drawn) [III-55]
< 10% | 30 to 60% | 16.2 µg/mL (≈ 48.2 µM) | Cc1cc(-c2cnccn2)nc2c(C(=O)NC(C)(C)C3CC3)ncn12 [III-56]
< 10% | < 30% | 23.4 µg/mL (≈ 69.6 µM) | Cc1cc(-c2cncnc2)nc2c(C(=O)NC(C)(C)C3CC3)ncn12 [III-57]
< 10% | > 60% | 44.4 µg/mL (≈ 130 µM) | Cc1cc(-c2cncs2)nc2c(C(=O)NC(C)(C)C3CC3)ncn12 [III-58]
10 to 20% | > 60% | 2.1 µg/mL (≈ 6.15 µM) | Cc1cc(-c2cnsc2)nc2c(C(=O)NC(C)(C)C3CC3)ncn12 [III-59]
10 to 20% | > 60% | 4 µg/mL (≈ 11.7 µM) | Cc1cc(-c2ccns2)nc2c(C(=O)NC(C)(C)C3CC3)ncn12 [III-60]
10 to 20% | > 60% | 5.5 µg/mL (≈ 16.1 µM) | Cc1cc(-c2nccs2)nc2c(C(=O)NC(C)(C)C3CC3)ncn12 [III-61]
< 10% | > 60% | 6.3 µg/mL (≈ 18.5 µM) | Cc1cc(-c2cscn2)nc2c(C(=O)NC(C)(C)C3CC3)ncn12 [III-62]
> 20% | > 60% | 3.5 µg/mL (≈ 8.07 µM) | CCCCO[C@H]1C[C@H]2CC[C@@H](C1)[C@H]2NC(=O)c1ncn2c(C)cc(-c3cccnc3)nc12 [III-63]

activation at 0.1 µM [1] | activation at 1 µM [1] | solubility [2] | Structure (SMILES)
< 10% | < 30% | 32.2 µg/mL (≈ 79 µM) | Cc1cc(-c2cccnc2)nc2c(C(=O)N[C@H]3CC[C@H](OC(C)(C)C)CC3)ncn12 [III-64]
< 10% | < 30% | 15.4 µg/mL (≈ 39.1 µM) | CCCO[C@H]1CC[C@H](NC(=O)c2ncn3c(C)cc(-c4cccnc4)nc23)CC1 [III-65]
< 10% | 30 to 60% | 16 µg/mL (≈ 39.3 µM) | Cc1cc(-c2cccnc2)nc2c(C(=O)N[C@H]3CC[C@H](OCC(C)C)CC3)ncn12 [III-66]
< 10% | < 30% | 23.4 µg/mL (≈ 72.1 µM) | Cc1cc(-n2ccnc2)nc2c(C(=O)NC(C)(C)C3CC3)ncn12 [III-67]
< 10% | < 30% | 27.3 µg/mL (≈ 83.9 µM) | Cc1cc(-n2cncn2)nc2c(C(=O)NC(C)(C)C3CC3)ncn12 [III-68]
< 10% | < 30% | 8.5 µg/mL (≈ 25.1 µM) | Cc1cc(-c2ccnn2C)nc2c(C(=O)NC(C)(C)C3CC3)ncn12 [III-69]
< 10% | 30 to 60% | 10.5 µg/mL (≈ 32.4 µM) | Cc1cc(-n2cccn2)nc2c(C(=O)NC(C)(C)C3CC3)ncn12 [III-70]
< 10% | > 60% | 22.5 µg/mL (≈ 59.9 µM) | Cc1cc(-c2cccnc2)nc2c(C(=O)NC(C3CC3)C(F)(F)F)ncn12 (stereo not drawn) [III-71]
10 to 20% | > 60% | 4.7 µg/mL (≈ 12.5 µM) | Cc1cc(-c2ccccn2)nc2c(C(=O)NC(C3CC3)C(F)(F)F)ncn12 (stereo not drawn) [III-72]
< 10% | < 30% | 19.3 µg/mL (≈ 47.4 µM) | CO[C@H]1CC[C@H](C(C)(C)NC(=O)c2ncn3c(C)cc(-c4cccnc4)nc23)CC1 [III-73]
< 10% | 30 to 60% | 19.3 µg/mL (≈ 47.4 µM) | CO[C@H]1CC[C@@H](C(C)(C)NC(=O)c2ncn3c(C)cc(-c4cccnc4)nc23)CC1 [III-74]
< 10% | 30 to 60% | 4.9 µg/mL (≈ 13.8 µM) | Cc1cc(-c2ccc(Cl)nc2)nc2c(C(=O)N[C@@H](C)C3CC3)ncn12 [III-75]
10 to 20% | > 60% | 1.1 µg/mL (≈ 2.97 µM) | Cc1cc(-c2ccc(Cl)nc2)nc2c(C(=O)NC(C)(C)C3CC3)ncn12 [III-76]
< 10% | < 30% | 23.2 µg/mL (≈ 67.7 µM) | Cc1cc(C2CCCOC2)nc2c(C(=O)NC(C)(C)C3CC3)ncn12 (stereo not drawn) [III-78]
10 to 20% | > 60% | 3 µg/mL (≈ 8.51 µM) | Cc1cc(-c2ccc(F)cc2)nc2c(C(=O)N[C@@H](C)C3CCC3)ncn12 [III-79]
< 10% | < 30% | 14.5 µg/mL (≈ 39.4 µM) | Cc1cc(-c2ccc(F)cc2)nc2c(C(=O)NC(C)C3CCCO3)ncn12 (stereo not drawn) [III-80]
< 10% | < 30% | 22.8 µg/mL (≈ 67.2 µM) | Cc1cc(-c2cn(C)nn2)nc2c(C(=O)NC(C)(C)C3CC3)ncn12 [III-82]
> 20% | > 60% | 1.2 µg/mL (≈ 3.37 µM) | Cc1cc(-c2ccc(F)c(F)c2)nc2c(C(=O)NC(C)C3CC3)ncn12 (stereo not drawn) [III-85]
> 20% | > 60% | 13.1 µg/mL (≈ 40.9 µM) | Cc1cc(-c2ccccc2)nc2c(C(=O)NC(C)C3CC3)ncn12 (stereo not drawn) [III-86]
> 20% | > 60% | 2.2 µg/mL (≈ 6.04 µM) | Cc1cc(-c2ccc(F)cc2)nc2c(C(=O)NC(C3CC3)C3CC3)ncn12 [III-87]
< 10% | > 60% | 2 µg/mL (≈ 6.13 µM) | Cc1cc(-c2ccc(F)cc2)nc2c(C(=O)NC(C)(C)C)ncn12 [III-88]
< 10% | < 30% | 24.5 µg/mL (≈ 79.2 µM) | Cc1cc(-c2cccnc2)nc2c(C(=O)NC(C)(C)C)ncn12 [III-89]
> 20% | > 60% | 2.2 µg/mL (≈ 5.56 µM) | CCNc1cc(C)n2cnc(C(=O)NC(c3ccc(F)cc3)C(F)(F)F)c2n1 (stereo not drawn) [III-90]
